Experimental data from patent US20130267494A1, “1,4-OXAZEPANE DERIVATIVES” (priority 2010, published 2013).
Structures can show the parent of a compound that is named as a salt. Where two headings read alike, the source gives them in different places.

Assays:
Type in all cases: cell-based
[1] = biological target: T1, human serotonin transporter (Homo sapiens, UniProt P31645); assay: Inhibitory action on human serotonin transporter ([3H]-5-hydroxytryptamine uptake in CHO cells); conditions: CHO, relative to inhibitory activity of 10 μM Paroxetine as 100%, read-out: inhibitory rate (%); for inhibition at 1 µM: compound 1 μM
T1 construct: expressed in transfected cells
Description: (§1) Human serotonin transporter cDNA was amplified from human brain cDNA library by PCR, and inserted into pCRII-TOPO vector (manufactured by Invitrogen). The base sequence was confirmed and modified, and subcloned to pcDNA3.1 vector (manufactured by Invitrogen), whereby a human serotonin transporter expression plasmid was constructed. Human norepinephrine transporter cDNA was purchased from Invitrogen, and the base sequence was confirm and modified, and subcloned to pcDNA3.1 vector, whereby a human norepinephrine transporter expression plasmid was constructed.
(§2) The monoamine transporter expression plasmids thus prepared were introduced into CHO-K1 cells using FuGENE6 (manufactured by Roche Diagnostics) and according to the attached protocol, whereby each expressing cell was established.
CHO cells stably expressing a human serotonin transporter were used for the measurement of human serotonin transporter inhibitory activity. Unless particularly indicated, these CHO cells were cultured in a Ham/F12 medium (Invitrogen) containing 10% fetal bovine serum (MOREGATE).
(§3) The cultured cells that reached almost confluent were rinsed with PBS (Invitrogen), detached with Trypsin/EDTA (Invitrogen), and collected by a centrifugal operation. The obtained cells were counted, and diluted to 3×10^5 cells per 1 mL medium, the mixture was dispensed to a 96 well white plate (Corning) at 100 μL per well, and cultured overnight in a CO2 incubator.
(§4) Then, an assay buffer (126 mM NaCl, 4.95 mM KCl, 1.26 mM KH2PO4, 1.26 mM MgSO4, 10 mM HEPES, 2.32 mM CaCl2, 5.52 mM Glucose, 0.5% BSA) was prepared, the medium in the cell plate was removed and the assay buffer was added by 80 μL. A test compound was diluted with the assay buffer to a 10-fold concentration of the final concentration, and the mixture was dispensed to a 96 well polypropylene plate. The diluted test compound was dispensed to the cell plate by 10 μL. [3H]-5-Hydroxytryptamine (GE Healthcare) was diluted with the assay buffer to 200 nM, and the mixture was dispensed to the cell plate by 10 μL. At 20 min from [3H]-5-hydroxytryptamine addition, the assay buffer was removed by suction, and the plate was washed twice with 150 μL of PBS (Invitrogen) per well. Microscinti20 (PerkinElmer) was dispensed to each well by 100 μL, and the mixture was stirred for about 30 min. The radioactivity was measured by TopCount (PerkinElmer).
The inhibitory activity of each compound (10 μM) was calculated as a relative activity value based on the inhibitory activity of 10 μM Paroxetine (serotonin transporter inhibitor) as 100%.
In addition, the inhibitory activity of each compound (1 μM) was calculated as a relative activity value based on the inhibitory activity of 10 μM Paroxetine (serotonin transporter inhibitor) as 100%.

[2] = biological target: T2, human norepinephrine transporter (Homo sapiens, UniProt P23975); assay: Inhibitory action on human norepinephrine transporter ([3H]-norepinephrine uptake in CHO cells); conditions: CHO, relative to inhibitory activity of 10 μM DMI as 100%
T2 construct: expressed in transfected cells
Description: as §1, §2
CHO cells stably expressing human norepinephrine transporter were used for the measurement of human norepinephrine transporter inhibitory activity. Unless otherwise indicated, these CHO cells were cultured in Ham/F12 medium (Invitrogen) containing 10% fetal bovine serum (MOREGATE).
as §3, with “medium, and” for “medium,”
as §4, with “μL. [3H]-Norepinephrine” for “μL. [3H]-5-Hydroxytryptamine”, “At 45” for “At 20”, “from [3H]-norepinephrine” for “from [3H]-5-hydroxytryptamine”
The inhibitory activity of each compound (10 μM) was calculated as a relative activity value based on the inhibitory activity of 10 μM DMI (norepinephrine transporter inhibitor) as 100%.
The inhibitory activity of each compound (1 μM) was calculated as a relative activity value based on the inhibitory activity of 10 μM DMI (norepinephrine transporter inhibitor) as 100%.

[3] = biological target: T3, human dopamine transporter (Homo sapiens, UniProt Q01959); assay: Inhibitory action on human dopamine transporter ([3H]-dopamine uptake in CHO cells); conditions: CHO, relative to inhibitory activity of 100 μM Nomifensine as 100%, read-out: inhibitory rate (%); for inhibition at 1 µM: compound 1 μM
T3 construct: expressed in transfected cells
Description: SRα promoter contained in pTB1411 described in JP-A-H5-076385 was cleaved with restriction enzyme […](manufactured by TAKARA BIO INC.), blunt-ended, further cleaved with restriction enzyme EcoRI (manufactured by TAKARA BIO INC.), and fragmented. On the other hand, pCI vector was cleaved with restriction enzyme BglII (manufactured by TAKARA BIO INC.), blunt-ended with T4 DNA polymerase, and further cleaved with restriction enzyme EcoRI (manufactured by TAKARA BIO INC.). Into this site was inserted an SRa promoter fragment to give pCI-SRa. Then, pCI-SRa was cleaved with restriction enzyme ClaI (manufactured by TAKARA BIO INC.) and blunt-ended. Into this site was inserted a 1.63 Kb fragment obtained by cleaving pGFP-C1 (manufactured by TOYOBO) with restriction enzyme Bsu36I (manufactured by Daiichi Pure Chemicals Co., Ltd.) followed by blunt-ending, whereby pMSRα neo was prepared. Human dopamine transporter cDNA was amplified from human substantia nigra cDNA library by PCR, and inserted into the pCRII vector (manufactured by Invitrogen). The base sequence was confirmed, modified and subcloned to pMSRα neo, whereby a human dopamine transporter expression plasmid was constructed.
as §2
CHO cells stably expressing human dopamine transporter were used for the measurement of human dopamine transporter inhibitory activity. Unless otherwise indicated, these CHO cells were cultured in Ham/F12 medium (Invitrogen) containing 10% fetal bovine serum (MOREGATE).
as §3, with “One day before the assay, the cultured” for “The cultured”, “medium, and” for “medium,”
as §4, with “On the day of the test, an” for “Then, an”, “μL. [3H]-Dopamine” for “μL. [3H]-5-Hydroxytryptamine”, “nM, cold dopamine was diluted to 10 μM,” for “nM,”, “At 60” for “At 20”, “from [3H]-dopamine” for “from [3H]-5-hydroxytryptamine”
The inhibitory activity of each compound (10 μM) was calculated as a relative activity value based on the inhibitory activity of 100 μM Nomifensine (dopamine transporter inhibitor) as 100%.
The inhibitory activity of each compound (1 μM) was m calculated as a relative activity value based on the inhibitory activity of 100 μM Nomifensine (dopamine transporter inhibitor) as 100%.

[4] = compound 1 μM, read-out: inhibitory rate (%)

T3 sequence (Q01959 whole entry): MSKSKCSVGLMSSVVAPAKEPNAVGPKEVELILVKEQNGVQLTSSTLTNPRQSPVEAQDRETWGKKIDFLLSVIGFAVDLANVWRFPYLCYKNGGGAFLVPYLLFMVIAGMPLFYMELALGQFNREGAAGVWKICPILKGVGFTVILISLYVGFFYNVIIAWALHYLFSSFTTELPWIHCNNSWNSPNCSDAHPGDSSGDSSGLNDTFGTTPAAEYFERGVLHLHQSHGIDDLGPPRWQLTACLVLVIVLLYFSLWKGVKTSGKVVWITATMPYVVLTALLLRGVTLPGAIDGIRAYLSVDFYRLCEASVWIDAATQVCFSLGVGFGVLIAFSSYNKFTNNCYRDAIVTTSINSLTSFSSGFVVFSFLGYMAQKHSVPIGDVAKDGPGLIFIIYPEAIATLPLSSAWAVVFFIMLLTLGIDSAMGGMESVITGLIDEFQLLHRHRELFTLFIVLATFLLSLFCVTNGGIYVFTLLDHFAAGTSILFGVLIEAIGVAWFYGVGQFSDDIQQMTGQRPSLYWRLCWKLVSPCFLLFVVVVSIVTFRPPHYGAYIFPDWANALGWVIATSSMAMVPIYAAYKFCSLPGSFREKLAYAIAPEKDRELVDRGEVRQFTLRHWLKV
T2 sequence (P23975 whole entry): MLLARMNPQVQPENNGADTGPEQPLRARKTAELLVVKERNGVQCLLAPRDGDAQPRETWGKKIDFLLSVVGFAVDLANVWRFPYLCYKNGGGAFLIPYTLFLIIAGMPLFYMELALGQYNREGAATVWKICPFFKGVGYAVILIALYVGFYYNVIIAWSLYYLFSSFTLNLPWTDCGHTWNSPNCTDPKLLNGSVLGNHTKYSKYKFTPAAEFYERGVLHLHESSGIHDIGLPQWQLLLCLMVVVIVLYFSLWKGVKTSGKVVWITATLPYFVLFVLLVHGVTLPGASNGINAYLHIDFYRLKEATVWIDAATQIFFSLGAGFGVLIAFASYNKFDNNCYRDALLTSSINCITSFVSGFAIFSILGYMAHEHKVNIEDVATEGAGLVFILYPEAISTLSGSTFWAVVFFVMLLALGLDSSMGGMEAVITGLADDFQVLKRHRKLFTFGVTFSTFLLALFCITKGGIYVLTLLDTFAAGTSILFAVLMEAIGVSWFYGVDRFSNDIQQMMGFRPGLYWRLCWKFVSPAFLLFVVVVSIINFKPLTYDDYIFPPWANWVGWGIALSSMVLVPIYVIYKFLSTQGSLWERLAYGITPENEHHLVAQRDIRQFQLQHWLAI
T1 sequence (P31645 whole entry): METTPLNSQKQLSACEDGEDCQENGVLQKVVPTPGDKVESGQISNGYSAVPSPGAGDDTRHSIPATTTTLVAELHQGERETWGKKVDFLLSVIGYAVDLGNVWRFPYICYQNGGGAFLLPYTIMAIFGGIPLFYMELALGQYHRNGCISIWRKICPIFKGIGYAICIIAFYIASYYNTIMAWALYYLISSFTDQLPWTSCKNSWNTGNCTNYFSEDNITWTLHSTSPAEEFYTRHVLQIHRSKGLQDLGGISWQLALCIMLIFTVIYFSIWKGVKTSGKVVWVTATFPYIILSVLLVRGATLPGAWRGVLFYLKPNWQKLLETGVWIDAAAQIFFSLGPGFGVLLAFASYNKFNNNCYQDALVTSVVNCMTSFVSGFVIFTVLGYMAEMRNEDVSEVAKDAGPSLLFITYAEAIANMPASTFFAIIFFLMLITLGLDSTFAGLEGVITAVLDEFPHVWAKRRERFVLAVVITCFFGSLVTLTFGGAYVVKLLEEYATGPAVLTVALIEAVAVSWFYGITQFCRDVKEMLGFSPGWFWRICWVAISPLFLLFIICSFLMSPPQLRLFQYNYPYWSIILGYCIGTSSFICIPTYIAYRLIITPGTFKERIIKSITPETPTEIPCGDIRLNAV

inhibition at 1 µM [1] [%]	inhibition at 1 µM [2, 4] [%]	inhibition at 1 µM [3] [%]	inhibition at 10 µM ([1]; compound 10 μM, CHO cells expressing human serotonin transporter) [%]	inhibition at 10 µM ([2]; compound 10 μM, read-out: inhibitory rate (%)) [%]	inhibition at 10 µM ([3]; compound 10 μM) [%]	SMILES	inhibition at 1 µM ([2]; read-out: inhibitory rate (%), compound 1 μM) [%]
102	103	19	–	–	–	O=C(NC[C@@H]1CNCCO[C@H]1c1ccc(Cl)c(F)c1)c1cc(-c2noc(=O)[nH]2)ccc1F [Example 357, N-{[(6S,7R)-7-(4-chloro-3-fluorophenyl)-1,4-oxazepan-6-yl]methyl}-2-fluoro-5-(5-oxo-4,5-dihydro-1,2,4-oxadiazol-3-yl)benzamide monohydrochloride]	–
14	107	1	–	–	–	O[C@@H]1CNCCO[C@H]1c1ccc(Cl)c(F)c1 [Example 552, (6R,7S)-7-(4-chloro-3-fluorophenyl)-1,4-oxazepan-6-ol monohydrochloride]	–
79	94	19	–	–	–	OC[C@H]1CNCCO[C@@H]1c1ccc(F)c(Cl)c1 [Example 285, [(6R,7S)-7-(3-chloro-4-fluorophenyl)-1,4-oxazepan-6-yl]methanol 0.5 fumarate]	–
84	97	10	–	–	–	CS(=O)(=O)NC[C@@]1(c2ccc(Cl)c(Cl)c2)CCNCCO1 [Example 432, N-{[(7S)-7-(3,4-dichlorophenyl)-1,4-oxazepan-7-yl]methyl}methanesulfonamide monohydrochloride]	–
96	108	20	–	–	–	O=c1[nH]c(-c2ccc(OC[C@@H]3CNCCO[C@H]3c3ccc(Cl)c(Cl)c3)nc2)no1 [Example 87, 3-(6-{[(6S,7R)-7-(3,4-dichlorophenyl)-1,4-oxazepan-6-yl]methoxy}pyridin-3-yl)-1,2,4-oxadiazol-5(4H)-one monohydrochloride]	–
87	94	20	99	99	50	CS(=O)(=O)NCC1(c2ccc(Cl)c(Cl)c2)CNCCCO1 (racemic) [Example 24, N-{[(2RS)-2-(3,4-dichlorophenyl)-1,4-oxazepan-2-yl]methyl}methanesulfonamide monohydrochloride]	–
78	104	38	–	–	–	O=C(O)c1ccnn(C[C@@H]2CNCCO[C@H]2c2ccc(Cl)c(F)c2)c1=O [Example 597, 2-{[(6S, 7R)-7-(4-chloro-3-fluoro-phenyl)-1,4-oxazepan-6-yl]methyl}-3-oxo-2,3-dihydro-pyridazine-4-carboxylic acid]	–
42	99	51	–	–	–	OC[C@H]1OCCNC[C@H]1c1ccc(Cl)c(Cl)c1 [Example 447, [(6R,7S)-6-(3,4-dichlorophenyl)-1,4-oxazepan-7-yl]methanol monohydrochloride]	–
92	102	17	–	–	–	OCC(O)COC[C@@]1(c2ccc(Cl)c(Cl)c2)CCNCCO1 (stereo partly drawn) [Example 417, 3-{[(7S)-7-(3,4-dichlorophenyl)-1,4-oxazepan-7-yl]methoxy}propane-1,2-diol monohydrochloride]	–
76	100	61	–	–	–	O=c1cccnn1C[C@H]1OCCNC[C@H]1c1ccc(Cl)c(Cl)c1 [Example 481, 2-{[(6R,7S)-6-(3,4-dichlorophenyl)-1,4-oxazepan-7-yl]methyl}pyridazin-3(2H)-one monohydrochloride]	–
99	103	57	–	–	–	O=C(NC[C@@H]1CNCCO[C@H]1c1ccc(Cl)c(F)c1)c1ccc[nH]c1=O [Example 367, N-{[(6S,7R)-7-(4-chloro-3-fluorophenyl)-1,4-oxazepan-6-yl]methyl}-2-oxo-1,2-dihydropyridine-3-carboxamide monohydrochloride]	–

SMILES	inhibition at 1 µM [1] [%]	inhibition at 1 µM [2, 4] [%]	inhibition at 1 µM [3] [%]	inhibition at 10 µM ([1]; compound 10 μM, CHO cells expressing human serotonin transporter) [%]	inhibition at 10 µM ([2]; compound 10 μM, read-out: inhibitory rate (%)) [%]	inhibition at 10 µM ([3]; compound 10 μM) [%]	inhibition at 1 µM ([2]; read-out: inhibitory rate (%), compound 1 μM) [%]
OCC1CNCCOC1c1ccc(Cl)c(Cl)c1 (stereo not drawn) [Example 48, [(6R*,7R*)-7-(3,4-dichlorophenyl)-1,4-oxazepan-6-yl]methanol monohydrochloride (retention time short)]	98	–	22	–	–	–	99
